Measured values taken from patent publication US10035790B2, “RORγ modulators” (BRISTOL-MYERS SQUIBB COMPANY, priority 2012, dated 2018).

Each compound was assayed against T1, ligand binding domain of human RORγ (A262-S507) (Homo sapiens, UniProt P51449) (assay: General RORγ SPA binding assay (competition with [3H]25-hydroxycholesterol)). Conditions: RORγ SPA binding assay, inhibition of [3H]25-hydroxycholesterol binding; read-out: IC50.
T1 construct: made in house; host or cells: E. coli
T1 sequence (P51449 262-507): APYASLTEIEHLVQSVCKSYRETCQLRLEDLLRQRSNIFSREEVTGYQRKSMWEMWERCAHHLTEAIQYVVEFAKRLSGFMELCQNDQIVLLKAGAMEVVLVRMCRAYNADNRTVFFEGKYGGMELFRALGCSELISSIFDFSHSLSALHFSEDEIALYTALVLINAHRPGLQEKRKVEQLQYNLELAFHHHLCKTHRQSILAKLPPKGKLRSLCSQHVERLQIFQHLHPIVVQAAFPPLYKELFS
Procedure, shortened: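 Step one: compound meets 50 nM nickel-purified, His-tagged protein from E. coli for 15 min at room temperature (PBS, 0.5% fatty acid free BSA). Step two: radioligand is added for another 15 min. Step three: SPA beads are added for 30 min before scintillation reading and IC50 fitting.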

| SMILES | IC50 |
| --- | --- |
| Cc1nc(C)c(-c2nnc(-c3cc(Cl)ccn3)o2)c(C2CCN(C(=O)Cc3c(F)cccc3F)CC2)n1 [Compound C21, 1-(4-(5-(5-(4-chloropyridin-2-yl)-1,3,4-oxadiazol-2-yl)-2,6-dimethylpyrimidin-4-yl)piperidin-1-yl)-2-(2,6-difluorophenyl)ethanone] | 3010 nM |
| Cc1nc(C)c(-c2nnc(-c3ccnc(Cl)c3)o2)c(C2CCN(C(=O)Cc3c(F)cccc3F)CC2)n1 [Compound C22, 1-(4-(5-(5-(2-chloropyridin-4-yl)-1,3,4-oxadiazol-2-yl)-2,6-dimethylpyrimidin-4-yl)piperidin-1-yl)-2-(2,6-difluorophenyl)ethanone] | 3960 nM |
| Cc1nc(C)c(-c2nnc(-c3ccc(Cl)nc3)o2)c(C2CCN(C(=O)Cc3c(F)cccc3F)CC2)n1 [Compound C23, 1-(4-(5-(5-(6-chloropyridin-3-yl)-1,3,4-oxadiazol-2-yl)-2,6-dimethylpyrimidin-4-yl)piperidin-1-yl)-2-(2,6-difluorophenyl)ethanone] | 5290 nM |
| Cc1nc(C)c(-c2nnc(-c3ccnc(C(F)(F)F)n3)o2)c(C2CCN(C(=O)c3c(F)cccc3F)CC2)n1 [Compound C24, 4-{1-[(2,6-Difluorophenyl)carbonyl]piperidin-4-yl}-2,6-dimethyl-5-{5-[2-(trifluoromethyl)pyrimidin-4-yl]-1,3,4-oxadiazol-2-yl}pyrimidine] | 277 nM |
| Cc1nc(C)c(-c2nnc(-c3ccnc(C(F)(F)F)n3)o2)c(C2CCN(C(=O)Cc3ccccc3F)CC2)n1 [Compound C25, 1-(4-(2,6-dimethyl-5-(5-(2-(trifluoromethyl)pyrimidin-4-yl)-1,3,4-oxadiazol-2-yl)pyrimidin-4-yl)piperidin-1-yl)-2-(2-fluorophenyl)ethanone] | 23.1 nM |
| Cc1nc(C)c(-c2nnc(-c3ccnc(C(F)(F)F)n3)o2)c(C2CCN(C(=O)C(C)c3c(F)cccc3F)CC2)n1 (stereo not shown) [Compound C26, 2-(2,6-difluorophenyl)-1-(4-(2,6-dimethyl-5-(5-(2-(trifluoromethyl)pyrimidin-4-yl)-1,3,4-oxadiazol-2-yl)pyrimidin-4-yl)piperidin-1-yl)propan-1-one] | 235 nM |
| Cc1nc(C)c(-c2nnc(-c3ccnc(C(F)(F)F)n3)o2)c(C2CCN(C(=O)c3c(F)cccc3Cl)CC2)n1 [Compound C27, (2-chloro-6-fluorophenyl)(4-(2,6-dimethyl-5-(5-(2-(trifluoromethyl)pyrimidin-4-yl)-1,3,4-oxadiazol-2-yl)pyrimidin-4-yl)piperidin-1-yl)methanone] | 461 nM |
| Cc1nc(C)c(-c2nnc(-c3ccnc(C(F)(F)F)n3)o2)c(C2CCN(C(=O)Nc3c(F)cccc3F)CC2)n1 [Compound C28, N-(2,6-Difluorophenyl)-4-(2,6-dimethyl-5-{5-[2-(trifluoromethyl)pyrimidin-4-yl]-1,3,4-oxadiazol-2-yl}pyrimidin-4-yl)piperidine-1-carboxamide] | 65.2 nM |

Other lines, results leading:

| IC50 | SMILES |
| --- | --- |
| 158 nM | Cc1nc(C)c(-c2nnc(-c3ccnc(C(F)(F)F)n3)o2)c(C2CCN(C(=O)Nc3ccccc3Cl)CC2)n1 [Compound C29, N-(2-chlorophenyl)-4-(2,6-dimethyl-5-{5-[2-(trifluoromethyl)pyrimidin-4-yl]-1,3,4-oxadiazol-2-yl}pyrimidin-4-yl)piperidine-1-carboxamide] |
| 49.7 nM | Cc1nc(C)c(-c2nnc(-c3ccnc(C(F)(F)F)n3)o2)c(C2CCN(C(=O)Nc3ccccc3C(F)(F)F)CC2)n1 [Compound C30, 4-(2,6-dimethyl-5-{5-[2-(trifluoromethyl)pyrimidin-4-yl]-1,3,4-oxadiazol-2-yl}pyrimidin-4-yl)-N-[2-(trifluoromethyl)phenyl]piperidine-1-carboxamide] |
| 49.6 nM | Cc1nc(C)c(-c2nnc(-c3ccnc(C(F)(F)F)n3)o2)c(C2CCN(C(=O)Nc3c(Cl)cccc3Cl)CC2)n1 [Compound C31, N-(2,6-dichlorophenyl)-4-(2,6-dimethyl-5-{5-[2-(trifluoromethyl)pyrimidin-4-yl]-1,3,4-oxadiazol-2-yl}pyrimidin-4-yl)piperidine-1-carboxamide] |
| 159 nM | Cc1nc(C)c(-c2nnc(-c3ccnc(C(F)(F)F)n3)o2)c(C2CCN(C(=O)Nc3ccccc3OC(F)(F)F)CC2)n1 [Compound C32, 4-(2,6-dimethyl-5-{5-[2-(trifluoromethyl)pyrimidin-4-yl]-1,3,4-oxadiazol-2-yl}pyrimidin-4-yl)-N-{2-[(trifluoromethyl)oxy]phenyl}piperidine-1-carboxamide] |
| 844 nM | Cc1nc(C)c(-c2nnc(-c3ccnc(C(F)(F)F)n3)o2)c(C2CCN(S(=O)(=O)c3c(F)cccc3F)CC2)n1 [Compound C33, 4-{1-[(2,6-Difluorophenyl)sulfonyl]piperidin-4-yl}-2,6-dimethyl-5-{5-[2-(trifluoromethyl)pyrimidin-4-yl]-1,3,4-oxadiazol-2-yl}pyrimidine] |
| 87.1 nM | Cc1nc(C)c(-c2nnc(-c3ccnc(C(F)(F)F)n3)o2)c(C2CCN(S(=O)(=O)Cc3ccccc3F)CC2)n1 [Compound C34, 4-(1-{[(2-Fluorophenyl)methyl]sulfonyl}piperidin-4-yl)-2,6-dimethyl-5-{5-[2-(trifluoromethyl)pyrimidin-4-yl]-1,3,4-oxadiazol-2-yl}pyrimidine] |
| 608 nM | Cc1nc(C)c(-c2nnc(-c3ccnc(C(F)(F)F)n3)o2)c(C2CCN(C(=O)[C@H](C)c3c(F)cccc3F)CC2)n1 [Compound C35, (R)-2-(2,6-Difluorophenyl)-1-(4-(2,6-dimethyl-5-(5-(2-(trifluoromethyl)pyrimidin-4-yl)-1,3,4-oxadiazol-2-yl)pyrimidin-4-yl)piperidin-1-yl)propan-1-one] |
| 155 nM | Cc1nc(C)c(-c2nnc(-c3ccnc(C(F)(F)F)n3)o2)c(C2CCN(C(=O)N(C)c3c(F)cccc3F)CC2)n1 [Compound C36, N-(2,6-Difluorophenyl)-4-(2,6-dimethyl-5-(5-(2-(trifluoromethyl)pyrimidin-4-yl)-1,3,4-oxadiazol-2-yl)pyrimidin-4-yl)-N-methylpiperidine-1-carboxamide] |
| 22.1 nM | [2H]C([2H])c1nc(C)c(-c2nnc(-c3ccnc(C(F)(F)F)n3)o2)c(C2CCN(C(=O)C([2H])c3c(F)cccc3F)CC2)n1 (stereo not shown) [Compound C37, 4-{1-[(2,6-Difluorophenyl)acetyl-2-d]piperidin-4-yl}-2-methyl-d2-6-methyl-5-{5-[2-(trifluoromethyl)pyrimidin-4-yl]-1,3,4-oxadiazol-2-yl}pyrimidine] |
| 8 nM | [2H]C([2H])(C(=O)N1CCC(c2nc(C)nc(C)c2-c2nnc(-c3ccnc(C(F)(F)F)n3)o2)CC1)c1c(F)cccc1F [Compound C38, 4-{1-[(2,6-Difluorophenyl)acetyl-2,2-d2]piperidin-4-yl}-2,6-dimethyl-5-{5-[2-(trifluoromethyl)pyrimidin-4-yl]-1,3,4-oxadiazol-2-yl}pyrimidine] |
| 4520 nM | Cc1nc(C)c(-c2nnc(-c3ccnc(C(F)(F)F)n3)s2)c(C2CCN(C(=S)Cc3c(F)cccc3F)CC2)n1 [Compound C39, 4-{1-[2-(2,6-Difluorophenyl)ethanethioyl]piperidin-4-yl}-2,6-dimethyl-5-{5-[2-(trifluoromethyl)pyrimidin-4-yl]-1,3,4-thiadiazol-2-yl}pyrimidine] |
